Experimental data as given in US10125160B1, “Method of making cobalt and platinum based surfactants and using for cancer therapy” (Umm Al-Qura University, priority 2015, dated 2018).

Legend:
MCF7 (Breast carcinoma) = assay: Potential cytotoxicity by SRB assay, MCF7; assay type: cell-based, human
Description: (§1) Potential cytotoxicity of the complex was tested using the method of Skehan et al. (1990). The tumor cell lines: MCF7 (Breast carcinoma), HEPG2 (liver carcinoma), (10^4 cells/well) had been supplied from National Cancer Institute Cairo Egypt, were plated in 96-multiwell plat for 24 h before treatment with the compounds to allow attachment of cell to the wall of the plate.
(§2) Different concentrations of the complexes under test (0, 1, 2.5, Sand 10 μg/ml) were added to the cell-monolayer (parent complex, parent complex with Co, parent complex with Pt). Triplicate wells were prepared for each individual dose. Monolayer cells were incubated with the complex for 48 h at 37 C° and in atmosphere of 5% CO2. After 48 h, Cells were fixed, washed and stained with Sulfurhodamine B stain. Excess stain was washed with acetic acid and attached stain was recovered with Tris EDTA buffer. Color intensity was measured in an ELISA reader. […]
(§3) Cobalt and Platinum benzidinium hydrogen selenite complexes as well as their parent were investigated as potential selective, anticancer drugs. […] The results of the cytotoxic activity on human tumor cell lines were determined according to the dose values of drug exposure for cell lines to reduce survival to 50% (Ic50). The experimental results recorded in Table (5) and plots of surviving fraction versus concentration in μg in FIGS. 2, 3).

HEPG2 (liver carcinoma) = assay: Potential cytotoxicity by SRB assay, HEPG2; assay type: cell-based, human
Description: as §1, §2, §3

[1] = Surface tension and critical micelle concentration (Du-Nouy tensiometer); assay type: physicochemical; parameters: PC20: unit not given here
Description: Surface tension values of the synthesized complex solutions (parent complex, parent complex with Co, parent complex with Pt) were obtained at 30îC using Du-Nouy Tensiometer (Kruss K6 Type 4851) with a platinum ring. Apparent surface tension was measured about five times for the sample within 2 min interval between each reading. The averages of five determinations were plotted against −log C without any correction. The critical micelle concentration values were determined from the plot of surface tension versus concentration.
Table 4 summarizes the surface-active parameters such as critical micelle concentration (CMC), γCMC, and pC20 (the surfactant concentration required to reduce the surface tension of the solvent by 20 mN/m) determined from the curves of FIG. 1. Values of Γmax (the surface excess concentration of surfactant) and Amin (interfacial area occupied by the surfactant molecules) were calculated using the Gibbs adsorption equation:
Where (δγ/δ log C) is the maximum slope in each case; T is absolute temperature; R=[…] and N is Avogadro's number. The standard free energy of micellization (ΔG°mic) is calculated from the equation: ΔG°mic=RT in CMC (Eq 7)
The standard free energy of adsorption (ΔG°ads) is calculated according to the following equation: ΔG°ads=ΔG°mic−ΠCMCAmin (Eq 8)

[2] = SRB assay, 48 h, dose reducing survival to 50%
[3] = in vitro on the tumor cell line investigated
[4] = calculated using Gibbs adsorption equation

With `CCCCCCCCCC(=O)Nc1ccc(-c2ccc(N)cc2)cc1.O=[Se](O)O` [parent, N-decanoylbenzidinum hydrogen selenite] the “MCF7 (IC50)” value (MCF7 (Breast carcinoma); [2]) was “−Ve”, the “cytotoxic activity in words, MCF7” value (MCF7 (Breast carcinoma); [3]) was “no effect” and the “HEPG2 (IC50)” value (HEPG2 (liver carcinoma); [2]) was “−Ve”. The “cytotoxic activity in words, HEPG2” value (HEPG2 (liver carcinoma); [3]) was “no effect”, the ΠCMC [1] was 33 mN/m and the “Amin (interfacial area occupied by surfactant molecules)” value [1, 4] was 1.80 nm^2. The “Γmax × 10^−11 (surface excess concentration)” value [1, 4] was 9.1 × 10^−11 Mole/cm^2, the “ΔGmic (standard free energy of micellization)” value ([1]; calculated, Eq 7) was −27.64 KJ\mol and the “ΔGads (standard free energy of adsorption)” value ([1]; calculated, Eq 8) was −64.21 KJ\mol. For the same molecule, the “CMC × 10^−3 (critical micelle concentration)” value ([1]; from plot of surface tension versus concentration) was 3.76 × 10^−3, the γCMC ([1]; surface tension at CMC) was 39 mN/m and the PC20 ([1]; surfactant concentration required to reduce surface tension of solvent by 20 mN/m) was 3.50.
